Measurements reported in patent US8192962B2, “Processes for detecting toxic substances” (Daikin Industries, Ltd., priority 2001, dated 2012).

Test system: Genes belonging to other category
Experiment: DNA chip mRNA expression in yeast, genes belonging to other category (Table 9)
Assay type: cell-based, Saccharomyces cerevisiae S288C
Method in brief: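 First, S288C yeast grown in YPD at 25° C. are dosed in log phase with one toxicant (growth-inhibiting, not lethal) for 2 h. Next, total RNA is extracted and poly(A) mRNA isolated and reverse-transcribed with Cy3/Cy5-dUTP. Finally, whole-genome chip fluorescence is read relative to unexposed cells.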

## COc1cc(CNC(=O)CCCCC=CC(C)C)ccc1O [(12), 8-methyl-N-vanillyl-6-nonenamide]
Yeast gene YAR010C
  The level of expressed mRNA in the presence of chemical substance/The level of expressed mRNA in the absence of chemical substance: 1.0
Yeast gene YBL005W-A
  The level of expressed mRNA in the presence of chemical substance/The level of expressed mRNA in the absence of chemical substance: 1.6
Yeast gene YBL041W
  The level of expressed mRNA in the presence of chemical substance/The level of expressed mRNA in the absence of chemical substance: 1.6
Yeast gene YBL043W
  The level of expressed mRNA in the presence of chemical substance/The level of expressed mRNA in the absence of chemical substance: 0.9
Yeast gene YBL078C
  The level of expressed mRNA in the presence of chemical substance/The level of expressed mRNA in the absence of chemical substance: 3.1
Yeast gene YBL102W
  The level of expressed mRNA in the presence of chemical substance/The level of expressed mRNA in the absence of chemical substance: 0.9
Yeast gene YBR212W
  The level of expressed mRNA in the presence of chemical substance/The level of expressed mRNA in the absence of chemical substance: 0.9
Yeast gene YBR214W
  The level of expressed mRNA in the presence of chemical substance/The level of expressed mRNA in the absence of chemical substance: 1.2
Yeast gene YCL020W
  The level of expressed mRNA in the presence of chemical substance/The level of expressed mRNA in the absence of chemical substance: 1.5
Yeast gene YCL027W
  The level of expressed mRNA in the presence of chemical substance/The level of expressed mRNA in the absence of chemical substance: 0.8
Yeast gene YCL067C
  The level of expressed mRNA in the presence of chemical substance/The level of expressed mRNA in the absence of chemical substance: 1.0
Yeast gene YCR004C
  The level of expressed mRNA in the presence of chemical substance/The level of expressed mRNA in the absence of chemical substance: 0.8
Yeast gene YCR067C
  The level of expressed mRNA in the presence of chemical substance/The level of expressed mRNA in the absence of chemical substance: 0.9
Yeast gene YCR071C
  The level of expressed mRNA in the presence of chemical substance/The level of expressed mRNA in the absence of chemical substance: 1.1
Yeast gene YCR088W
  The level of expressed mRNA in the presence of chemical substance/The level of expressed mRNA in the absence of chemical substance: 1.3
Yeast gene YCR096C
  The level of expressed mRNA in the presence of chemical substance/The level of expressed mRNA in the absence of chemical substance: 1.0
Yeast gene YDL008W
  The level of expressed mRNA in the presence of chemical substance/The level of expressed mRNA in the absence of chemical substance: 1.2
Yeast gene YDL119C
  The level of expressed mRNA in the presence of chemical substance/The level of expressed mRNA in the absence of chemical substance: 0.9
Yeast gene YDL197C
  The level of expressed mRNA in the presence of chemical substance/The level of expressed mRNA in the absence of chemical substance: 0.8
Yeast gene YDL238C
  The level of expressed mRNA in the presence of chemical substance/The level of expressed mRNA in the absence of chemical substance: 0.9
Yeast gene YDR055W
  The level of expressed mRNA in the presence of chemical substance/The level of expressed mRNA in the absence of chemical substance: 1.4
Yeast gene YDR084C
  The level of expressed mRNA in the presence of chemical substance/The level of expressed mRNA in the absence of chemical substance: 0.7
Yeast gene YDR085C
  The level of expressed mRNA in the presence of chemical substance/The level of expressed mRNA in the absence of chemical substance: 1.6
Yeast gene YDR104C
  The level of expressed mRNA in the presence of chemical substance/The level of expressed mRNA in the absence of chemical substance: 1.1
Yeast gene YDR115W
  The level of expressed mRNA in the presence of chemical substance/The level of expressed mRNA in the absence of chemical substance: 0.9
Yeast gene YDR169C
  The level of expressed mRNA in the presence of chemical substance/The level of expressed mRNA in the absence of chemical substance: 0.9
Yeast gene YDR188W
  The level of expressed mRNA in the presence of chemical substance/The level of expressed mRNA in the absence of chemical substance: 0.9
Yeast gene YDR212W
  The level of expressed mRNA in the presence of chemical substance/The level of expressed mRNA in the absence of chemical substance: 0.8
Yeast gene YDR259C
  The level of expressed mRNA in the presence of chemical substance/The level of expressed mRNA in the absence of chemical substance: 1.0
Yeast gene YDR315C
  The level of expressed mRNA in the presence of chemical substance/The level of expressed mRNA in the absence of chemical substance: 0.6
Yeast gene YDR329C
  The level of expressed mRNA in the presence of chemical substance/The level of expressed mRNA in the absence of chemical substance: 0.8
Yeast gene YDR358W
  The level of expressed mRNA in the presence of chemical substance/The level of expressed mRNA in the absence of chemical substance: 1.1
Yeast gene YDR378C
  The level of expressed mRNA in the presence of chemical substance/The level of expressed mRNA in the absence of chemical substance: 0.9
Yeast gene YDR388W
  The level of expressed mRNA in the presence of chemical substance/The level of expressed mRNA in the absence of chemical substance: 0.8
Yeast gene YDR403W
  The level of expressed mRNA in the presence of chemical substance/The level of expressed mRNA in the absence of chemical substance: 1.0
Yeast gene YDR432W
  The level of expressed mRNA in the presence of chemical substance/The level of expressed mRNA in the absence of chemical substance: 0.7
Yeast gene YDR481C
  The level of expressed mRNA in the presence of chemical substance/The level of expressed mRNA in the absence of chemical substance: 0.9
Yeast gene YDR510W
  The level of expressed mRNA in the presence of chemical substance/The level of expressed mRNA in the absence of chemical substance: 1.4
Yeast gene YDR515W
  The level of expressed mRNA in the presence of chemical substance/The level of expressed mRNA in the absence of chemical substance: 0.8
Yeast gene YEL005C
  The level of expressed mRNA in the presence of chemical substance/The level of expressed mRNA in the absence of chemical substance: 0.8
Yeast gene YEL042W
  The level of expressed mRNA in the presence of chemical substance/The level of expressed mRNA in the absence of chemical substance: 1.0
Yeast gene YEL066W
  The level of expressed mRNA in the presence of chemical substance/The level of expressed mRNA in the absence of chemical substance: 0.8
Yeast gene YER021W
  The level of expressed mRNA in the presence of chemical substance/The level of expressed mRNA in the absence of chemical substance: 1.0
Yeast gene YER039C
  The level of expressed mRNA in the presence of chemical substance/The level of expressed mRNA in the absence of chemical substance: 0.9
Yeast gene YER048C
  The level of expressed mRNA in the presence of chemical substance/The level of expressed mRNA in the absence of chemical substance: 0.8
Yeast gene YER100W
  The level of expressed mRNA in the presence of chemical substance/The level of expressed mRNA in the absence of chemical substance: 0.8
Yeast gene YER107C
  The level of expressed mRNA in the presence of chemical substance/The level of expressed mRNA in the absence of chemical substance: 0.7
Yeast gene YER130C
  The level of expressed mRNA in the presence of chemical substance/The level of expressed mRNA in the absence of chemical substance: 1.0
Yeast gene YFL022C
  The level of expressed mRNA in the presence of chemical substance/The level of expressed mRNA in the absence of chemical substance: 0.6
Yeast gene YFL028C
  The level of expressed mRNA in the presence of chemical substance/The level of expressed mRNA in the absence of chemical substance: 1.1
Yeast gene YFL043C
  The level of expressed mRNA in the presence of chemical substance/The level of expressed mRNA in the absence of chemical substance: 0.9
Yeast gene YGL011C
  The level of expressed mRNA in the presence of chemical substance/The level of expressed mRNA in the absence of chemical substance: 1.0
Yeast gene YGL094C
  The level of expressed mRNA in the presence of chemical substance/The level of expressed mRNA in the absence of chemical substance: 0.8
Yeast gene YGL150C
  The level of expressed mRNA in the presence of chemical substance/The level of expressed mRNA in the absence of chemical substance: 0.8
Yeast gene YGL158W
  The level of expressed mRNA in the presence of chemical substance/The level of expressed mRNA in the absence of chemical substance: 1.3
Yeast gene YGL207W
  The level of expressed mRNA in the presence of chemical substance/The level of expressed mRNA in the absence of chemical substance: 0.7
Yeast gene YGL229C
  The level of expressed mRNA in the presence of chemical substance/The level of expressed mRNA in the absence of chemical substance: 1.1
Yeast gene YGR023W
  The level of expressed mRNA in the presence of chemical substance/The level of expressed mRNA in the absence of chemical substance: 0.9
Yeast gene YGR036C
  The level of expressed mRNA in the presence of chemical substance/The level of expressed mRNA in the absence of chemical substance: 1.0
Yeast gene YGR136W
  The level of expressed mRNA in the presence of chemical substance/The level of expressed mRNA in the absence of chemical substance: 1.2
Yeast gene YGR189C
  The level of expressed mRNA in the presence of chemical substance/The level of expressed mRNA in the absence of chemical substance: 1.3
Yeast gene YGR201C
  The level of expressed mRNA in the presence of chemical substance/The level of expressed mRNA in the absence of chemical substance: 1.9
Yeast gene YGR213C
  The level of expressed mRNA in the presence of chemical substance/The level of expressed mRNA in the absence of chemical substance: 10.6
Yeast gene YGR257C
  The level of expressed mRNA in the presence of chemical substance/The level of expressed mRNA in the absence of chemical substance: 0.9
Yeast gene YGR270W
  The level of expressed mRNA in the presence of chemical substance/The level of expressed mRNA in the absence of chemical substance: 0.8
Yeast gene YGR279C
  The level of expressed mRNA in the presence of chemical substance/The level of expressed mRNA in the absence of chemical substance: 0.7
Yeast gene YHR004C
  The level of expressed mRNA in the presence of chemical substance/The level of expressed mRNA in the absence of chemical substance: 0.9
Yeast gene YHR027C
  The level of expressed mRNA in the presence of chemical substance/The level of expressed mRNA in the absence of chemical substance: 1.0
Yeast gene YHR071W
  The level of expressed mRNA in the presence of chemical substance/The level of expressed mRNA in the absence of chemical substance: 0.8
Yeast gene YHR139C
  The level of expressed mRNA in the presence of chemical substance/The level of expressed mRNA in the absence of chemical substance: 1.6
Yeast gene YHR142W
  The level of expressed mRNA in the presence of chemical substance/The level of expressed mRNA in the absence of chemical substance: 1.3
Yeast gene YHR160C
  The level of expressed mRNA in the presence of chemical substance/The level of expressed mRNA in the absence of chemical substance: 0.8
Yeast gene YHR161C
  The level of expressed mRNA in the presence of chemical substance/The level of expressed mRNA in the absence of chemical substance: 1.0
Yeast gene YHR171W
  The level of expressed mRNA in the presence of chemical substance/The level of expressed mRNA in the absence of chemical substance: 0.8
Yeast gene YHR195W
  The level of expressed mRNA in the presence of chemical substance/The level of expressed mRNA in the absence of chemical substance: 0.9
Yeast gene YIL034C
  The level of expressed mRNA in the presence of chemical substance/The level of expressed mRNA in the absence of chemical substance: 1.0
Yeast gene YIL062C
  The level of expressed mRNA in the presence of chemical substance/The level of expressed mRNA in the absence of chemical substance: 0.8
Yeast gene YIL075C
  The level of expressed mRNA in the presence of chemical substance/The level of expressed mRNA in the absence of chemical substance: 0.8
Yeast gene YIL123W
  The level of expressed mRNA in the presence of chemical substance/The level of expressed mRNA in the absence of chemical substance: 0.8
Yeast gene YIL140W
  The level of expressed mRNA in the presence of chemical substance/The level of expressed mRNA in the absence of chemical substance: 1.0
Yeast gene YJL073W
  The level of expressed mRNA in the presence of chemical substance/The level of expressed mRNA in the absence of chemical substance: 1.0
Yeast gene YJL089W
  The level of expressed mRNA in the presence of chemical substance/The level of expressed mRNA in the absence of chemical substance: 1.2
Yeast gene YJL113W
  The level of expressed mRNA in the presence of chemical substance/The level of expressed mRNA in the absence of chemical substance: 0.7
